# Values of other authors, collected in US8951752B2, “N-demethyase genes and uses thereof” (priority 2011, dated 2015).
# Target: T1, Caffeine dehydrogenase (Cdh) from CBB1 (Pseudomonas sp., UniProt D7REY3)
# T1 sequence (D7REY3 1-791): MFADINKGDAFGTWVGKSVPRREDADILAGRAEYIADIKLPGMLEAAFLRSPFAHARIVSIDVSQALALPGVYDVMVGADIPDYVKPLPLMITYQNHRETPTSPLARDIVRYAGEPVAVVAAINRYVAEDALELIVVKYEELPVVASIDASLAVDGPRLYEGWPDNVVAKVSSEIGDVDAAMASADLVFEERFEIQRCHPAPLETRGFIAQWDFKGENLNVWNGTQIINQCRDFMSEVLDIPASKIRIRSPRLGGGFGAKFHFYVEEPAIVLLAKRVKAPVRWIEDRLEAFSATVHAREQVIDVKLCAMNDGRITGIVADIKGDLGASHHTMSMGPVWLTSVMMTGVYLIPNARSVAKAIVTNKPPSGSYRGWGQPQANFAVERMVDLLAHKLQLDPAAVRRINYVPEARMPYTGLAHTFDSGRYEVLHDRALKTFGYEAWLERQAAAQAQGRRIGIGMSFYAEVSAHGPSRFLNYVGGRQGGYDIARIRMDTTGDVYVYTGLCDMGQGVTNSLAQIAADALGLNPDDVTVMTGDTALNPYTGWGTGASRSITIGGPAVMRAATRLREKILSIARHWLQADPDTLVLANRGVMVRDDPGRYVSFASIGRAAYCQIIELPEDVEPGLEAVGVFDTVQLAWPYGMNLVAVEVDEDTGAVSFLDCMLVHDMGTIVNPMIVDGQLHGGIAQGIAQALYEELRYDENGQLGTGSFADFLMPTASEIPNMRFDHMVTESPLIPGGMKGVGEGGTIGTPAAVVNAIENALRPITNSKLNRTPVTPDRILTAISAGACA
# T1 sequence (D7REY4 1-295 partner): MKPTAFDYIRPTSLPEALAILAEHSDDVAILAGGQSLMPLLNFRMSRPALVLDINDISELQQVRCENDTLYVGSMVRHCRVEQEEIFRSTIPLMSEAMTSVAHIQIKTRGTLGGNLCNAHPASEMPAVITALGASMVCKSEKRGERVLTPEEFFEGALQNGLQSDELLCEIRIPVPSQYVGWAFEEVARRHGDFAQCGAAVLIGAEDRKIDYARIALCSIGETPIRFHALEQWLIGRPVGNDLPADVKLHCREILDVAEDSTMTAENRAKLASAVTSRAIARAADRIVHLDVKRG
# T1 sequence (D7REY5 1-167 partner): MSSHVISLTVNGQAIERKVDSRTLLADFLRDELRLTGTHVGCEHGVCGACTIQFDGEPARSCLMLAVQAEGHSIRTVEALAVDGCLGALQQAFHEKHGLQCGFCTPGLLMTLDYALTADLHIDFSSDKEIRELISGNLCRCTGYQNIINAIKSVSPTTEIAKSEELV
# Details: cited from earlier work
smiles,measurement,value
"Cn1cnc2c1c(=O)[nH]c(=O)n2C [Theobromine, 3,7-dimethylxanthine]","preference as a substrate, times less than caffeine",50 times
